{"source": "patent US20150111896A1", "about": "“HEMATOPOIETIC PROTECTION AGAINST CHEMOTHERAPEUTIC COMPOUNDS USING SELECTIVE CYCLIN-DEPENDENT KINASE 4/6 INHIBITORS” (The University of North Carolina at Chapel Hill, priority 2008, published 2015)", "key": {"[1]": {"system": "telomerized human diploid fibroblast (tHDF) cells (HS68)", "experiment": "Cell proliferation assay (WST-1 or CellTiter-Glo) after chemotherapeutic", "details": "HS68, viability after 7 days; for chemoprotective effects against doxorubicin, carboplatin, etoposide (cell viability, CellTiter-Glo): 16 hour pretreatment, DOX 122 nM, Carbo 50 μM or Etop 2.5 μM 8 hours", "protocol": "(§7) In some embodiments, cell viability is assessed by performing a assay using 2-(4-iodophenyl)-3-(4-nitrophenyl)-5-(2,4-disulfophenyl)-2H-tetrazolium monosodium salt (WST-1), such as described further hereinbelow. In the WST-1 assay, WST-1 is cleaved by a mitochondrial reductase present in viable cells to form a colored product (i.e., formazan) that can be detected by measuring absorbance at a particular wavelength (e.g., 420-480 nm). […] The CellTiter-Glo® assay (CTG assay; Promega, Madison, Wis., United States of America) measures cell viability by measuring ATP concentration in cell lysate.\n(§8) Cell lines: Telomerized human diploid fibroblast (tHDF) cells (HS68) were cultured in Dulbecco's Modified Eagle Medium (DMEM) +10% fetal bovine serum (FBS) with any additional compounds. The same conditions were used for A2058 and WM2664, human melanoma cell lines with known RB-pathway mutations: A2058 is RB-null, whereas WM2664 lacks INK4a/ARF. Thus, A2058 cells are CDK4/6-independent, while WM2664 cells are CDK4/6-dependent. Cells were cultured in DMEM+10% FBS.\n(§9) Cell proliferation assays: Cell proliferation assays were performed by seeding 1×10^3 cells per well in a 96-well tissue culture plate in 100 μL of growth medium. Cells were treated as indicated with compound from Table 1 and doxorubicin, etoposide or carboplatin. Following treatment, cells were allowed to recover for 7 days in normal growth medium. At the end of the recovery period, cell number was quantified using the VVST-1 cell proliferation assay (TaKaRa Bio USA, Madison, Wis., United States of America) or the CellTiter-Glo® assay (CTG; Promega, Madison, Wis., United States of America). Data is presented as absorbance at 450 nm for the WST assays or Relative Light Units (RLU) for the CTG assays."}, "[2]": {"system": "telomerized human diploid fibroblast (tHDF) cells (HS68)", "protocol": "as §7, §8, §9"}, "[3]": {"system": "human melanoma cells lacking INK4a/ARF (WM2664)", "experiment": "Cell proliferation assay (WST-1 or CellTiter-Glo) after chemotherapeutic", "protocol": "as §7, §8, §9"}, "[4]": {"system": "human RB-null melanoma cells (A2058)", "experiment": "Cell cycle analysis (BrdU and propidium iodide, flow cytometry)", "format": "cell-based", "details": "A2058 (RB-null, CDK4/6-independent), 24 hours treatment", "description": "(§1) Cells were cultured in DMEM+10% FBS.\n(§2) Cell cycle analysis: Cell cycle analysis was performed using BrdU and propidium iodide (both from BD Biosciences Pharmigen, San Jose, Calif., United States of America) following the manufacturer's protocol. Cells were treated for 24 hours with a test compound at a desired dose prior to 15 minutes BrdU pulse, cell harvesting, fixation, staining, and analysis by flow cytometry.\n(§3) Histograms of dose-response curves of PD332991 and 2BrIC in HS68, WM2664 and A2058 cells were analyzed using Mod-Fit™ software from Verity Software House (Topsham, Me., United States of America)."}, "[5]": {"system": "human melanoma cells lacking INK4a/ARF (WM2664)", "experiment": "Cell cycle analysis (BrdU and propidium iodide, flow cytometry)", "format": "cell-based", "details": "WM2664 (CDK4/6-dependent), 24 hours treatment", "description": "as §1, §2, §3"}, "[6]": {"system": "telomerized human diploid fibroblast (tHDF) cells (HS68)", "experiment": "Cell cycle analysis (BrdU and propidium iodide, flow cytometry)", "format": "cell-based", "details": "HS68 (CDK4/6-dependent), 24 hours treatment", "description": "as §1, §2, §3"}, "[7]": {"system": "human RB-null melanoma cells (A2058)", "experiment": "Cell proliferation assay (WST-1 or CellTiter-Glo) after chemotherapeutic", "protocol": "as §7, §8, §9"}, "[8]": {"system": "HS68 cells", "experiment": "TOXILIGHT assay (adenylate kinase release)", "format": "cell-based, human", "details": "pretreatment, then Carbo 50 μM, DOX 122 nM or Etop 2.5 μM 8 hours", "description": "(§4) Cellular cytotoxicity was assessed using the TOXILIGHT™ Bioassay kit (Lonza, Basel, Switzerland) which measures cytolysis by quantifying the release of adenylate kinase into the culture media. […] 100 μL of TOXILIGHT™ reagent is added and incubated for 5 minutes and read in a luminometer at 1 second/well."}, "[9]": {"system": "RB-null human melanoma cells (A2058)", "experiment": "TOXILIGHT assay (adenylate kinase release)", "format": "cell-based", "details": "16 hours treatment, then Carbo 50 μM, DOX 122 nM or Etop 2.5 μM 8 hours", "description": "as §4"}, "[10]": {"system": "human melanoma cells lacking INK4a/ARF (WM2664)", "experiment": "TOXILIGHT assay (adenylate kinase release)", "format": "cell-based", "details": "16 hours treatment, then Carbo 50 μM, DOX 122 nM or Etop 2.5 μM 8 hours", "description": "as §4"}, "[11]": {"system": "human melanoma cells lacking INK4a/ARF (WM2664)", "experiment": "γH2AX assay (DNA damage, flow cytometry)", "format": "cell-based", "details": "16 hours pretreatment, then 8 hours Carbo, Etop or Dox", "description": "(§5) Reduction in DNA damage effected by the test compound or maintenance of cell viability effected by the test compound in cells treated with cytotoxic compounds can be assessed in any suitable manner. For example, DNA damage in cell populations can be assessed by performing a gamma-H2AX assay as described further herein below. Mammalian cells respond to agents that introduce DNA double-stranded breaks with the immediate and substantial phosphorylation of histone H2AX. Thus, detection of the phosphorylated H2AX, termed gamma-H2AX (γH2AX), using commercially available antibodies, can serve as a measure of DNA damage in cells.\nas §1\n(§6) γH2AX assay: For γH2AX assay, cells were treated with a dose response of PD332991 or 2BrIC for 24 hours. Cells were fixed, permeabilized, and stained with anti-γH2AX antibody as per γH2AX Flow Kit (Millipore, Billerica, Mass., United States of America). γH2AX levels were assessed by flow cytometry."}, "[12]": {"system": "telomerized human diploid fibroblast (tHDF) cells (HS68)", "experiment": "γH2AX assay (DNA damage, flow cytometry)", "format": "cell-based", "details": "16 hours pretreatment, then 8 hours Carbo, Etop or Dox", "description": "as §5, §1, §6"}}}
{"smiles": "CCC(CO)Nc1nc(NCc2ccccc2)c2ncn(C(C)C)c2n1", "note": "(stereo not shown) [Roscovitine]", "values": [{"measurement": "chemoprotective effects against doxorubicin (cell viability, CellTiter-Glo)", "setting": "[1]; 16 hours pretreatment, DOX 370 nM 8 hours", "value": "absence of chemoprotective effects"}, {"measurement": "protection from chemotherapy-induced cytotoxicity (cell proliferation assays)", "setting": "[2]", "value": "failed to protect"}, {"measurement": "protection from chemotherapy-induced cytotoxicity (cell proliferation assays)", "setting": "[3]; WM2664 (CDK4/6-dependent), pretreatment prior to carboplatin, etoposide or doxorubicin", "value": "failed to protect"}, {"measurement": "chemoprotective effects against doxorubicin (cell viability, CellTiter-Glo)", "setting": "[3]; WM2664, 16 hours pretreatment, DOX 122 nM 8 hours, viability after 7 days", "value": "absence of chemoprotective effects"}, {"measurement": "cell cycle effect", "setting": "[4]", "value": "did not induce a clean G1 arrest"}, {"measurement": "cell cycle effect", "setting": "[5]", "value": "does not induce G1 arrest"}, {"measurement": "cell cycle effect", "setting": "[5]; listed as roscovitine", "value": "did not induce a clean G1 arrest"}, {"measurement": "cell cycle effect", "setting": "[6]", "value": "does not induce G1 arrest"}, {"measurement": "cell cycle effect", "setting": "[6]; listed as roscovitine", "value": "did not induce a clean G1 arrest"}, {"measurement": "protection from chemotherapy-induced cytotoxicity (cell proliferation assays)", "setting": "[7]; A2058 (CDK4/6-independent), pretreatment prior to carboplatin, etoposide or doxorubicin", "value": "failed to protect"}, {"measurement": "chemoprotective effects against doxorubicin (cell viability, CellTiter-Glo)", "setting": "[7]; A2058, 16 hours pretreatment, DOX 370 nM 8 hours, viability after 7 days", "value": "absence of chemoprotective effects"}]}
{"smiles": "CN[C@@H]1C[C@H]2O[C@@](C)([C@@H]1OC)n1c3ccccc3c3c4c(c5c6ccccc6n2c5c31)C(=O)NC4", "note": "[staurosporine]", "values": [{"measurement": "chemoprotective effects against doxorubicin, carboplatin, etoposide (cell viability, CellTiter-Glo)", "setting": "[1]", "value": "does not provide protection"}, {"measurement": "chemoprotective effects against doxorubicin, carboplatin, etoposide (cell viability, CellTiter-Glo)", "setting": "[1]; listed as Staurosporine", "value": "does not appear to protect"}, {"measurement": "effect on chemotherapy-induced cytotoxicity (adenylate kinase release)", "setting": "[8]", "value": "enhances chemotherapy-induced cytotoxicity in a cyclin-dependent kinase 4/6 (CDK4/6)-independent manner"}, {"measurement": "cell cycle effect", "setting": "[6]", "value": "substantially pure G1 arrest"}, {"measurement": "cell cycle effect", "setting": "[6]; listed as Staurosporine", "value": "appears to induce G1 cell cycle arrest"}, {"measurement": "effect on chemotherapy-induced cytotoxicity (adenylate kinase release)", "setting": "[9]", "value": "enhances chemotherapy-induced cytotoxicity in a cyclin-dependent kinase 4/6 (CDK4/6)-independent manner"}, {"measurement": "effect on chemotherapy-induced cytotoxicity (adenylate kinase release)", "setting": "[10]", "value": "enhances chemotherapy-induced cytotoxicity in a cyclin-dependent kinase 4/6 (CDK4/6)-independent manner"}, {"measurement": "protection from doxorubicin-, carboplatin- or etoposide-induced DNA damage (gamma-H2AX)", "setting": "[11]", "value": "does not protect"}, {"measurement": "protection from doxorubicin-, carboplatin- or etoposide-induced DNA damage (gamma-H2AX)", "setting": "[11]; listed as Staurosporine", "value": "does not appear to protect"}, {"measurement": "protection from doxorubicin-, carboplatin- or etoposide-induced DNA damage (gamma-H2AX)", "setting": "[12]", "value": "does not protect"}, {"measurement": "protection from doxorubicin-, carboplatin- or etoposide-induced DNA damage (gamma-H2AX)", "setting": "[12]; listed as Staurosporine", "value": "does not appear to protect"}]}
